Measurements as given in patent publication US20130217702A1 (Richter Gedeon Nyrt., priority 2010, published 2013).

Key:
[1] = target: T1, recombinant human B1 receptors (Homo sapiens, UniProt P46663); test: Functional assay: antagonist potency by cytosolic calcium measurement (plate reader fluorimeter) in CHO-B1 cells, agonist LysDABK; assay type: cell-based; conditions: CHO-B1 cells, inhibition of LysDABK (EC80)-evoked [Ca2+]i elevation; read-out: B1 func.
T1 construct: host or cells: CHO (CHO-B1)
T1 sequence (P46663 1-353): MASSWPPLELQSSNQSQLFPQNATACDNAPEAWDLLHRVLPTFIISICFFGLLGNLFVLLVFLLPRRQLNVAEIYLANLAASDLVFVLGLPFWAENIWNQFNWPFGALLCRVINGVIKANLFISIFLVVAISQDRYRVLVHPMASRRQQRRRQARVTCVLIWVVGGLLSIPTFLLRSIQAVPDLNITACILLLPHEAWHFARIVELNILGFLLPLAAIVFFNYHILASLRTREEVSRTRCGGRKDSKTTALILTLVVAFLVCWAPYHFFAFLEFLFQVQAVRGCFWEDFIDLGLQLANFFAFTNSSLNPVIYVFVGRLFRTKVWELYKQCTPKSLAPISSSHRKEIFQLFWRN
Protocol: Assessment of Antagonist Potency at B1 Receptors In Vitro by Measurement of Cytosolic Calcium Ion Concentration with a Plate Reader Fluorimeter in Cells Expressing Recombinant Human B1 Receptors
Chinese hamster ovary (CHO) cells stably expressing recombinant human B1 (CHO-B1, Euroscreen) receptors were cultured in Dulbecco's Modified Eagle's Medium (DMEM) containing 10% Fetal Calf Serum (FCS), 100 U/ml penicillin, 0.1 mg/ml streptomycin, 0.25 μg/ml amphotericin B, 1% Minimum Essential Medium Eagle (MEM), non essential amino acid solution, 600 μg/ml G418. Cells were kept at 37° C. in a humidified incubator in an atmosphere of 5% CO2/95% air and were passaged 1:4 three times a week. Cells were plated at 1.5−2.5×10^4 cell/well on standard 96-well microplates, measurements of cytosolic calcium ion concentration ([Ca^2+]i) were carried out 1-2 days after cell plating.
Measurements of [Ca^2+]i were carried out on CHO-B1 cells stably expressing human B1 receptors, respectively. Cells were grown in standard 96-well microplates and before the measurement were loaded with a fluorescent Ca^2+-sensitive dye, fluo-4/AM (2 μM): after removing the culture medium the dye was added to the cells (dissolved in assay buffer: 145 mM NaCl, 5 mM KCl, 2 mM MgCl2, 2 mM CaCl2, 10 mM HEPES, 20 mM D-glucose, 2 mM probenecid, 100 μl/well) and cells were incubated at 37° C. in a humidified incubator in an atmosphere of 5% CO2/95% air for 40-120 min. To stop dye loading cells were washed twice with assay buffer. After washing, various concentrations of the test compounds (diluted in extracellular medium from a DMSO stock solution, final DMSO concentration was <0.1%) or buffer were added to each well depending on the experimental setup. After incubation at 37° C. for 20-25 min. baseline and agonist-evoked changes of [Ca^2+]; were measured column by column with a plate reader fluorimeter (Fluoroskan Ascent, Labsystems). Excitation and detection of emission was carried out from the bottom of the plate. Filters used for Fluo-4: excitation filter 485 nm, emission filter 538 nm. The whole measurement process was performed at 37° C. and was controlled by custom software. Inhibitory potency of the test compounds was assessed by measuring the reduction in the agonist-evoked [Ca^2+]i-elevation in the presence of different concentrations of the compounds. The agonist was LysDABK for CHO-B1 cells. Agonist was applied at an EC80 concentration; the EC80-values were derived from daily determined dose-response curves. Fluorescence data were expressed as ΔF/F (fluorescence change normalized to baseline). All treatments on a single plate were measured in multiple wells. Data from all wells with the same treatment were averaged and the average values were used for analysis. Inhibitory potency of a compound at a single concentration point was expressed as percent inhibition of the control agonist response. Sigmoidal concentration-inhibition curves were fitted to the data (derived from at least three independent experiments) and IC50-values were determined as the concentration that produces half of the maximal inhibition caused by the compound.

[2] = target: T2, human recombinant bradykinin B1 receptor (Homo sapiens, UniProt P46663); test: Human recombinant bradykinin B1 receptor competitive radioligand binding; conditions: hB1 expressed in CHO cells, [3H]-[Des-Arg10] Kallidin radioligand; read-out: B1 binding
T2 construct: host or cells: CHO cells, clone hB1-A5
T2 sequence (P46663 1-353): T1 sequence (P46663 1-353)
Protocol: Assessment of Ligand Binding Affinity to B1 and B2 Receptors In Vitro by Competitive Radioligand Binding Assay
Binding assays were carried out on human recombinant bradykinin) receptors (expressed in CHO cells, hB1-A5) according to the Euroscreen Technical Data Sheet (Cat.No.:ES-091). 20 μg protein/tube was incubated with [3,4-prolyl-3,4-^3H(N)]-[Des-Arg^10] Kallidin as radioligand. Non specific binding was determined in the presence of 10 μM Lys-des-Arg^9-Bradykinin. The final incubation volume was 250 μl. Samples were incubated for 15 min. at 25° C. then were rapidly vacuum filtered through GF/B filters presoaked for at least 1 h in 0.5% PEI. Radioactivity was determined by liquid scintillation spectroscopy.
The ligand displacement by the compounds was determined using a minimum of seven concentrations in triplicate, and experiments were repeated at least two times. The specific radioligand binding is defined as the difference between total binding and the non-specific binding determined in the presence of an excess of unlabelled ligand. Results are expressed as a percent inhibition of specific binding obtained in the presence of RGH-478 or reference drugs. IC50 values (i.e. concentration of compound giving 50% inhibition of specific binding) were calculated from concentration-displacement curves by sigmoidal fitting using GraphPad Prism Software 4.0. Ki values (i.e. inhibition constants) were calculated using the Cheng-Prusoff equation. KD was determined from the Scatchard plot. (Editor-in-chief: Enna, S. J. and Williams, M. Current protocols in pharmacology vol. 1. John Wiley & sons Inc., 1998)

SMILES	IC50 [1]	Ki [2]
Cc1nc(-c2c(Cl)c3ccccc3n2-c2ccc(CNC(=O)C3(NC(=O)c4cccc(F)c4)CC3)cc2)no1 [Example 178, N-(1-{4-[3-Chloro-2-(5-methyl-[1,2,4]oxadiazol-3-yl)-indol-1-yl]-benzylcarbamoyl}-cyclopropyl)-3-fluoro-benzamide]	< 20 nM	< 20 nM
COc1cc(C(=O)NC2(C(=O)NCc3ccc(-n4c(-c5noc(C)n5)cc5cc(F)ccc54)cc3F)CC2)on1 [Example 133, 3-Methoxy-isoxazole-5-carboxylic acid (1-{2-fluoro-4-[5-fluoro-2-(5-methyl-[1,2,4]oxadiazol-3-yl)-indol-1-yl]-benzylcarbamoyl}-cyclopropyl)-amide]	< 20 nM	< 20 nM
N#Cc1cc2cc(F)ccc2n1-c1ccc(CNC(=O)C2(NC(=O)c3cncc(C(F)(F)F)c3)CC2)cc1 [Example 45, N-{1-[4-(2-Cyano-5-fluoro-indol-1-yl)-benzylcarbamoyl]-cyclopropyl}-5-trifluoromethyl-nicotinamide]	< 20 nM	< 20 nM
COc1cc(C(=O)NC2(C(=O)NCc3ccc(-n4c(-c5noc(C)n5)cc5cc(F)ccc54)cn3)CC2)on1 [Example 61, 3-Methoxy-isoxazole-5-carboxylic acid [1-({5-[5-fluoro-2-(5-methyl-[1,2,4]oxadiazol-3-yl)-indol-1-yl]-pyridin-2-ylmethyl}-carbamoyl)-cyclopropyl]-amide]	< 20 nM	< 20 nM
Cc1cnc(C(=O)NC2(C(=O)NCc3ccc(-n4c(-c5nnn(C)n5)c(Cl)c5ccccc54)cc3)CC2)cn1 [Example 25, 5-Methyl-pyrazine-2-carboxylic acid (1-{4-[3-chloro-2-(2-methyl-2H-tetrazol-5-yl)-indol-1-yl]-benzylcarbamoyl}-cyclopropyl)-amide]	20 to 100 nM	< 20 nM
Cc1cnc(C(=O)NC2(C(=O)NCc3ccc(-n4c(-c5noc(C)n5)c(Cl)c5cc(Cl)ccc54)cc3)CC2)cn1 [Example 72, 5-Methyl-pyrazine-2-carboxylic acid (1-{4-[3,5-dichloro-2-(5-methyl-[1,2,4]oxadiazol-3-yl)-indol-1-yl]-benzylcarbamoyl}-cyclopropyl)-amide]	< 20 nM	< 20 nM
Cc1nc(-c2c(Cl)c3ccccc3n2-c2ccc(CNC(=O)C3(NC(=O)c4ccnc(F)c4)CC3)c(F)c2)no1 [Example 109, N-(1-{4-[3-Chloro-2-(5-methyl-[1,2,4]oxadiazol-3-yl)-indol-1-yl]-2-fluoro-benzylcarbamoyl}-cyclopropyl)-2-fluoro-isonicotinamide]	< 20 nM	< 20 nM
COc1ccc2c(c1)c(Cl)c(C#N)n2-c1ccc(CNC(=O)C2(NC(=O)c3cc(OC)no3)CC2)cc1 [Example 52, 3-Methoxy-isoxazole-5-carboxylic acid {1-[4-(3-chloro-2-cyano-5-methoxy-indol-1-yl)-benzylcarbamoyl]-cyclopropyl}-amide]	< 20 nM	< 20 nM
CSc1ncc(C(=O)NC2(C(=O)NCc3ccc(-n4c(-c5noc(C)n5)c(Cl)c5ccccc54)cc3)CC2)cn1 [Example 77, 2-Methylsulfanyl-pyrimidine-5-carboxylic acid (1-{4-[3-chloro-2-(5-methyl-[1,2,4]oxadiazol-3-yl)-indol-1-yl]-benzylcarbamoyl}-cyclopropyl)-amide]	< 20 nM	< 20 nM
Cn1nnc(-c2c(Cl)c3cc(F)ccc3n2-c2ccc(CNC(=O)C3(NC(=O)C(F)(F)F)CC3)cc2)n1 [Example 12, 1-(2,2,2-Trifluoro-acetylamino)-cyclopropanecarboxylic acid 4-[3-chloro-5-fluoro-2-(2-methyl-2H-tetrazol-5-yl)-indol-1-yl]-benzylamide]	< 20 nM	< 20 nM
Cc1noc(-c2c(Cl)c3ccccc3n2-c2ccc(CNC(=O)C3(NC(=O)CC(F)(F)F)CC3)cc2)n1 [Example 112, 1-(3,3,3-Trifluoro-propionylamino)-cyclopropanecarboxylic acid 4-[3-chloro-2-(3-methyl-[1,2,4]oxadiazol-5-yl)-indol-1-yl]-benzylamide]	< 20 nM	< 20 nM
Cc1nc(-c2c(F)c3cc(F)ccc3n2-c2ccc(CNC(=O)C3(NC(=O)C(F)(F)F)CC3)cc2)no1 [Example 199, 1-(2,2,2-Trifluoro-acetylamino)-cyclopropanecarboxylic acid 4-[3,5-difluoro-2-(5-methyl-[1,2,4]oxadiazol-3-yl)-indol-1-yl]-benzylamide]	< 20 nM	< 20 nM
Cc1nc(-c2c(Cl)c3ccccc3n2-c2ccc(CNC(=O)C3(NC(=O)c4cc(C(F)(F)F)ccc4F)CC3)cc2)no1 [Example 96, N-(1-{4-[3-Chloro-2-(5-methyl-[1,2,4]oxadiazol-3-yl)-indol-1-yl]-benzylcarbamoyl}-cyclopropyl)-2-fluoro-5-trifluoromethyl-benzamide]	< 20 nM	< 20 nM
COc1ccc2c(c1)cc(-c1nc(C)no1)n2-c1ccc(CNC(=O)C2(NC(=O)c3cncc(C(F)(F)F)c3)CC2)cc1 [Example 79, N-(1-{4-[5-Methoxy-2-(3-methyl-[1,2,4]oxadiazol-5-yl)-indol-1-yl]-benzylcarbamoyl}-cyclopropyl)-5-trifluoromethyl-nicotinamide]	< 20 nM	< 20 nM
COc1cc(C(=O)NC2(C(=O)NCc3ccc(-n4c(-c5noc(C)n5)c(Cl)c5ccccc54)cc3F)CC2)on1 [Example 192, 3-Methoxy-isoxazole-5-carboxylic acid (1-{4-[3-chloro-2-(5-methyl-[1,2,4]oxadiazol-3-yl)-indol-1-yl]-2-fluoro-benzylcarbamoyl}-cyclopropyl)-amide]	< 20 nM	< 20 nM
COc1cc(C(=O)NC2(C(=O)NCc3ccc(-n4c(C#N)cc5cc(Cl)ccc54)cc3)CC2)on1 [Example 43, 3-Methoxy-isoxazole-5-carboxylic acid {1-[4-(5-chloro-2-cyano-indol-1-yl)-benzylcarbamoyl]-cyclopropyl}-amide]	20 to 100 nM	< 20 nM
COc1cc(C(=O)NC2(C(=O)NCc3ccc(-n4c(-c5nc(C)no5)cc5cc(F)ccc54)cc3)CC2)on1 [Example 103, 3-Methoxy-isoxazole-5-carboxylic acid (1-{4-[5-fluoro-2-(3-methyl-[1,2,4]oxadiazol-5-yl)-indol-1-yl]-benzylcarbamoyl}-cyclopropyl)-amide]	< 20 nM	< 20 nM
